Measurements from paper PMC11747885, “Potent inhibitors of the human RNA ligase Rlig1 highlights its role in RNA integrity maintenance under oxidative cellular stress” (Chemical Science, 2025).
Where “and” joins values, the source holds several entries; their conditions need not be identical. Equal values may be shown once. Read-outs that look alike come from different tables or passages of the source.

Experiments:
[1] = target: T1, Rlig1-AMP (Homo sapiens, UniProt Q8N999); assay: FRET-based high-throughput screening of inhibitors for Rlig1-AMP; format: biochemical; details: for 1-D Distance: difference of raw data w/o and w enzyme; for Raw data [w Enyzm]: with enzyme; for Raw data [w/o Enzym]: without enzyme
T1 construct: made in house; host or cells: E. coli BL21 (DE3), pET15b-Rlig1

[2] = target: chymotrypsin; parameters: method as in MedChemExpress; details: ref MedChemExpress; cited from earlier work
[3] = target: phosphodiesterase 5 (PDE5); parameters: method as in MedChemExpress; details: ref MedChemExpress; cited from earlier work
[4] = target: phosphodiesterase 3 (PDE3); parameters: method as in MedChemExpress; details: ref MedChemExpress; cited from earlier work
[5] = target: phosphodiesterase 4 (PDE4); parameters: method as in MedChemExpress; details: ref MedChemExpress; cited from earlier work
[6] = target: Insulin-like Growth Factor 1 Receptor (IGF1R); parameters: method as in MedChemExpress; details: ref MedChemExpress; cited from earlier work
[7] = system: proton transport; parameters: method as in MedChemExpress; details: ref MedChemExpress; read-out: EC50, inhibition of proton transport; cited from earlier work
[8] = system: NO production; parameters: method as in MedChemExpress; details: ref MedChemExpress; cited from earlier work
[9] = DMSO; ultrasonic/warming; ref MedChemExpress; cited from earlier work
[10] = system: transcription factor PU.1; parameters: method as in MedChemExpress; details: ref MedChemExpress; cited from earlier work
[11] = system: JAK2; parameters: method as in MedChemExpress; details: ref MedChemExpress; cited from earlier work
[12] = system: Tyk2; parameters: method as in MedChemExpress; details: ref MedChemExpress; cited from earlier work
[13] = system: JAK3; parameters: method as in MedChemExpress; details: ref MedChemExpress; cited from earlier work
[14] = system: JAK1; parameters: method as in MedChemExpress; details: ref MedChemExpress; cited from earlier work
[15] = system: Rift Valley virus; details: cited from earlier work
[16] = system: HIV-1; details: ref MedChemExpress; cited from earlier work
[17] = system: Ebola virus; details: cited from earlier work
[18] = system: HCV; parameters: method as in MedChemExpress; details: ref MedChemExpress; cited from earlier work
[19] = system: Dengue Fever virus; parameters: method as in MedChemExpress; details: ref MedChemExpress; cited from earlier work
[20] = target: BCL-2; parameters: method as in MedChemExpress; details: ref MedChemExpress; cited from earlier work
[21] = in DMSO; ref MedChemExpress; cited from earlier work
[22] = system: H+/K+-ATPases; parameters: method as in MedChemExpress [1]; details: porcine, canine, and human, in vitro; ref MedChemExpress [1]; cited from earlier work
[23] = system: ERβ; parameters: method as in MedChemExpress; details: ref MedChemExpress; read-out: IC50, binding to ERβ; cited from earlier work
[24] = system: EGFR; parameters: method as in MedChemExpress; details: ref MedChemExpress; cited from earlier work
[25] = system: ErbB2; parameters: method as in MedChemExpress; details: ref MedChemExpress, cited from earlier work
[26] = system: TrKA; parameters: method as in MedChemExpress; details: ref MedChemExpress; read-out: IC50, TrKA phosphorylation; cited from earlier work
[27] = system: GLP; parameters: method as in MedChemExpress; details: ref MedChemExpress; cited from earlier work
[28] = system: G9a; parameters: method as in MedChemExpress; details: ref MedChemExpress; cited from earlier work
[29] = parameters: method as in MedChemExpress [1]; details: ref MedChemExpress [1]; read-out: IC50 superoxide anion scavenging; cited from earlier work
[30] = parameters: method as in MedChemExpress [1]; details: ref MedChemExpress [1]; read-out: IC50 DPPH radical scavenging; cited from earlier work
[31] = system: MIA PaCa-2 cells; parameters: method as in MedChemExpress; details: ref MedChemExpress, read-out: IC50, Pol I-mediated rRNA synthesis; cited from earlier work
[32] = system: Pol II; parameters: method as in MedChemExpress; details: ref MedChemExpress; cited from earlier work
[33] = system: A375; parameters: method as in MedChemExpress; details: ref MedChemExpress, read-out: IC50, Pol I-mediated rRNA synthesis; cited from earlier work
[34] = system: HCT-116; parameters: method as in MedChemExpress; details: ref MedChemExpress, read-out: IC50, Pol I-mediated rRNA synthesis; cited from earlier work
[35] = target: NTPDase 1 (CD39); parameters: method as in MedChemExpress; details: ref MedChemExpress; cited from earlier work
[36] = target: NTPDase 2; parameters: method as in MedChemExpress; details: ref MedChemExpress; cited from earlier work
[37] = target: NTPDase 3; parameters: method as in MedChemExpress; details: ref MedChemExpress; cited from earlier work
[38] = HTS hits, normalised value of 1-D Distance
[39] = HTS hits, normalized value (npi)

T1 sequence (Q8N999 whole entry): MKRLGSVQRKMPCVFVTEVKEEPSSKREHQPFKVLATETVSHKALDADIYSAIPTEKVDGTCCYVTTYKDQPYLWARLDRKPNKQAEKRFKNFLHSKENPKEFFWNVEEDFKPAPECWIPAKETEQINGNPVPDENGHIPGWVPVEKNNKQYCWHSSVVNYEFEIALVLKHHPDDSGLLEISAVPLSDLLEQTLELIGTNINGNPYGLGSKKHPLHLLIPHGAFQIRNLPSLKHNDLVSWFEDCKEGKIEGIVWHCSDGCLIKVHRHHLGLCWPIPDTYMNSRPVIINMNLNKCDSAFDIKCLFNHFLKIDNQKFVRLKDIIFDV

Aprotinin
1-D Distance ([1]; HTS hits): 1367
1-D Distance.npi [1, 38]: 82.3934
Raw data [w Enyzm] ([1]; HTS hits): 37995
Raw data [w/o Enzym] ([1]; HTS hits): 39362
Ki [2]: 9 nM

Cl.O=C1NCC2(CCN(CCc3ccccc3)CC2)O1 [Fenspiride (hydrochloride)]
1-D Distance ([1]; HTS hits): 1963
1-D Distance.npi [1, 38]: 70.4519
Raw data [w Enyzm] ([1]; HTS hits): 8551
Raw data [w/o Enzym] ([1]; HTS hits): 10514
-log IC50, PDE5 [3]: ~3.8
-log IC50, PDE3 [4]: 3.44
-log IC50, PDE4 [5]: 4.16

Indirubin Derivative E804
1-D Distance.npi ([1]; sheet HTS hits, MedChemExpress library): 87.7994
1-D Distance ([1]; sheet HTS hits): 1070
Raw data [w Enyzm] ([1]; sheet HTS hits): 1875
Raw data [w/o Enzym] ([1]; sheet HTS hits): 2945
IC50 [6]: 650 nM

CCCCCCCCCCCCCCCC[N+](C)(C)CCN(Cc1ccc(OC)cc1)c1ncccn1.[Br-] [Thonzonium (bromide)]
1-D Distance ([1]; HTS hits): 365
1-D Distance.npi [1, 38]: 101.053
Raw data [w Enyzm] ([1]; HTS hits): 4968
Raw data [w/o Enzym] ([1]; HTS hits): 4603
EC50 [7]: 69000 nM

CC(/C=C/C=C(\C)C(=O)O[C@@H]1O[C@H](CO)[C@@H](O)[C@H](O)[C@H]1O)=C\C=C\C=C(C)\C=C\C=C(/C)C(=O)O[C@@H]1O[C@H](CO[C@@H]2O[C@H](CO)[C@@H](O)[C@H](O)[C@H]2O)[C@@H](O)[C@H](O)[C@H]1O [Crocin II]
1-D Distance ([1]; HTS hits): 1772
1-D Distance.npi [1, 38]: 72.9439
Raw data [w Enyzm] ([1]; HTS hits): 3357
Raw data [w/o Enzym] ([1]; HTS hits): 5129
IC50 [8]: 31100 nM
solubility, DMSO [9]: 25 mg/mL and 30.68 mM

CC(C)N=C(N)c1ccc2nc(-c3ccc(OCc4cccc(COc5ccc(-c6nc7ccc(C(N)=NC(C)C)cc7[nH]6)cc5)c4F)cc3)[nH]c2c1 [DB2313]
1-D Distance ([1]; HTS hits): 699
1-D Distance.npi [1, 38]: 88.7864
Raw data [w Enyzm] ([1]; HTS hits): 5551
Raw data [w/o Enzym] ([1]; HTS hits): 4852
PU.1 inhibitor with an apoptosis of [10]: DB2313 is a potent transcription factor PU.1 inhibitor with an apoptosis of 14 nM. DB2313 disrupts the interaction of PU.1 with target gene promoters. DB2313 induces apoptosis of acute myeloid leukemia (AML) cells, and has anticancer effects[1].

NC(=O)c1cnc2[nH]ccc2c1N[C@@H]1[C@@H]2CC3C[C@H]1C[C@@](O)(C3)C2 [Peficitinib]
1-D Distance ([1]; HTS hits): 1954
Raw data [w Enyzm] ([1]; HTS hits): 8816
Raw data [w/o Enzym] ([1]; HTS hits): 10770
IC50 [11]: 5 nM
IC50 [12]: 4.8 nM
IC50 [14]: 3.9 nM

Cc1cc(NCCCN(C)C)c2ccc3c(ccc4c(NCCCN(C)C)cc(C)nc43)c2n1.Cl.Cl.Cl.Cl [FGI-106 (tetrahydrochloride)]
EC50 [15]: 800 nM
1-D Distance ([1]; HTS hits): 429
1-D Distance.npi [1, 39]: 96.4905
Raw data [w Enyzm] ([1]; HTS hits): 7836
Raw data [w/o Enzym] ([1]; HTS hits): 8265
EC50 [16]: 150 nM
EC50 [17]: 100 nM
EC50 [18]: 200 nM
EC50 [19]: 400 to 900 nM

COC1=CC(c2cc3ccccc3[nH]2)=N/C1=C\c1[nH]c(C)cc1C.CS(=O)(=O)O [Obatoclax (Mesylate)]
1-D Distance ([1]; HTS hits): 702
1-D Distance.npi [1, 39]: 94.4219
Raw data [w Enyzm] ([1]; HTS hits): 1010
Raw data [w/o Enzym] ([1]; HTS hits): 1712
Ki [20]: 220 nM

Cc1nc2cc(C(=O)N(C)C)cc(O[C@H]3CCOc4cc(F)cc(F)c43)c2[nH]1 [Tegoprazan]
solubility, DMSO [21]: DMSO : 100 mg/mL (258.14 mM; Need ultrasonic)
1-D Distance ([1]; sheet HTS hits): 1843
Raw data [w Enyzm] ([1]; sheet HTS hits): 8992
Raw data [w/o Enzym] ([1]; sheet HTS hits): 10835
IC50 [22]: 290 to 520 nM

OC[C@H]1O[C@@H](Oc2cc3c(O)cc(O)cc3[o+]c2-c2cc(O)c(O)c(O)c2)[C@H](O)[C@@H](O)[C@@H]1O.[Cl-] [Delphinidin 3-glucoside (chloride)]
IC50 [23]: 9700 nM
1-D Distance ([1]; HTS hits): 1749
1-D Distance.npi [1, 38]: 73.356
Raw data [w Enyzm] ([1]; HTS hits): 3316
Raw data [w/o Enzym] ([1]; HTS hits): 5065
IC50 [24]: 2370 nM

CC(C)(C)c1cc(/C=C(\C#N)C(N)=S)cc(C(C)(C)C)c1O [Tyrphostin AG 879]
IC50 ([25]; ErbB2): 1000 nM
selectivity to ErbB2 than EGFR ([25]; ErbB2 vs EGFR): ≥ 500 fold
IC50 [26]: 10000 nM
1-D Distance ([1]; HTS hits): 1883
Raw data [w Enyzm] ([1]; HTS hits): 2204
Raw data [w/o Enzym] ([1]; HTS hits): 4087

COc1cc2c(NC3CCN(C)CC3)cc(-c3ccc(C)o3)nc2cc1OCCCN1CCCC1 [CM-272]
IC50 [27]: 2 nM
1-D Distance ([1]; HTS hits): 449
1-D Distance.npi [1, 39]: 99.0872
Raw data [w Enyzm] ([1]; HTS hits): 6004
Raw data [w/o Enzym] ([1]; HTS hits): 6453

O=C1O[C@@H]2[C@@H](O)[C@H](O)[C@@H](CO)O[C@H]2c2c1cc(O)c(O)c2O [Norbergenin]
solubility, DMSO [21]: DMSO : 125 mg/mL (397.79 mM; Need ultrasonic)
1-D Distance ([1]; sheet HTS hits): 1829
Raw data [w Enyzm] ([1]; sheet HTS hits): 9099
Raw data [w/o Enzym] ([1]; sheet HTS hits): 10928
IC50 [29]: 32000 nM
IC50 [30]: 13000 nM

Cc1cnc(CNC(=O)c2c(=O)c3ccc(N4CCCN(C)CC4)nc3n3c2sc2ccccc23)cn1.Cl.Cl [CX-5461 dihydrochloride]
IC50 [31]: 54 nM
1-D Distance ([1]; HTS hits): 1694
1-D Distance.npi [1, 38]: 72.2021
Raw data [w Enyzm] ([1]; HTS hits): 7215
Raw data [w/o Enzym] ([1]; HTS hits): 8909
IC50 [32]: ≥ 25000 nM
IC50 [33]: 113 nM
IC50 [34]: 142 nM

Sodium metatungstate
1-D Distance ([1]; HTS hits): 673
1-D Distance.npi [1, 39]: 95.6511
Raw data [w Enyzm] ([1]; HTS hits): 16164
Raw data [w/o Enzym] ([1]; HTS hits): 15491
Ki [35]: 2580 nM
Ki [36]: 28800 nM
Ki [37]: 3260 nM
